Results from article PMC9600963, “Cation ATPase (ATP4) Orthologue Replacement in the Malaria Parasite Plasmodium knowlesi Reveals Species-Specific Responses to ATP4-Targeting Drugs” (mBio, 2022).

Experiments:
Assay type in all cases: cell-based
PkATP4 (PkATP4^OR line) [1] = target: T1, PkATP4 (PkATP4^OR line) (Plasmodium knowlesi, UniProt A0A384LKC1); assay: growth inhibition of orthologue replacement parasite line, SYBR green I (whole-cell read-out); conditions: intact P. knowlesi parasites in erythrocytes, 27 h (one life cycle); not a direct enzyme assay
T1 construct: gene PKNH_1312000; untagged; intact parasites
T1 sequence (A0A384LKC1 1-1293): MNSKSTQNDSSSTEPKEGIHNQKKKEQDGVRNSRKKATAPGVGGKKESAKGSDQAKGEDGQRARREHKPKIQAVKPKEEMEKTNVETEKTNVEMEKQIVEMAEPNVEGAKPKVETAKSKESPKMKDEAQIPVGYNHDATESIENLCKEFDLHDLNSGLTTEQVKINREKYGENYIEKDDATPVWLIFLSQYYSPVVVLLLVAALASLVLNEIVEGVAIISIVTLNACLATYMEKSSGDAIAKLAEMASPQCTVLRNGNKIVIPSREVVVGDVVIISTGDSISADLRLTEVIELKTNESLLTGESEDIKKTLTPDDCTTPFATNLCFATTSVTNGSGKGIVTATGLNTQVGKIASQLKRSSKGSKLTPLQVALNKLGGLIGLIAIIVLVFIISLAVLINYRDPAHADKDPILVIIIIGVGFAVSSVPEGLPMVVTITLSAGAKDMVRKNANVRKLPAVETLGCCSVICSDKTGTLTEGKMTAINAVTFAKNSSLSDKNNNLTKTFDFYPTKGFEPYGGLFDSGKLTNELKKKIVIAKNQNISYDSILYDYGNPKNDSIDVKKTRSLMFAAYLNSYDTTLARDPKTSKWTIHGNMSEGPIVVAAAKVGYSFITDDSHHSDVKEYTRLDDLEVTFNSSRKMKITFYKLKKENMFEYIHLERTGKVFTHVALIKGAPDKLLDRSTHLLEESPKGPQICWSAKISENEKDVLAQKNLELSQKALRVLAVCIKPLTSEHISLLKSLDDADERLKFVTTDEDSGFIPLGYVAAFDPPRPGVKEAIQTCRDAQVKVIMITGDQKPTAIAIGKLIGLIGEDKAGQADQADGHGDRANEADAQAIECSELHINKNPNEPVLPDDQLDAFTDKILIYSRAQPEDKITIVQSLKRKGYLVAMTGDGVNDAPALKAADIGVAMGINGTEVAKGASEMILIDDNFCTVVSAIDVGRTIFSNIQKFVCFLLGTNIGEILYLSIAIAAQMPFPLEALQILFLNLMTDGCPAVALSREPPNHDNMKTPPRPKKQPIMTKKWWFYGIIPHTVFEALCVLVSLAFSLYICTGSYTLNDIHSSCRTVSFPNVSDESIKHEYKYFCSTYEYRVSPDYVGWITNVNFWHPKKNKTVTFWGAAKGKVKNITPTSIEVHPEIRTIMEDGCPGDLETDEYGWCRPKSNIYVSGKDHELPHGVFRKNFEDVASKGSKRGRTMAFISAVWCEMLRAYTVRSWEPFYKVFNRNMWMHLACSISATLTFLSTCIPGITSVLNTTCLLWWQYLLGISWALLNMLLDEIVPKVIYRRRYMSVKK
Source text: growth inhibition of orthologue replacement parasite line, SYBR green I (whole-cell read-out) on PkATP4 (PkATP4^OR line)

PmATP4 (PmATP4^OR line) [2] = target: T2, PmATP4 (PmATP4^OR line) (Plasmodium malariae, UniProt A0A1A8WBD6); assay: as above; conditions: intact P. knowlesi parasites in erythrocytes, 27 h (one life cycle); not a direct enzyme assay
T2 construct: gene ATP4; full-length recodonized coding region replacing pkatp4 in P. knowlesi A1-H.1; untagged; intact parasites
T2 sequence (A0A1A8WBD6 1-1380): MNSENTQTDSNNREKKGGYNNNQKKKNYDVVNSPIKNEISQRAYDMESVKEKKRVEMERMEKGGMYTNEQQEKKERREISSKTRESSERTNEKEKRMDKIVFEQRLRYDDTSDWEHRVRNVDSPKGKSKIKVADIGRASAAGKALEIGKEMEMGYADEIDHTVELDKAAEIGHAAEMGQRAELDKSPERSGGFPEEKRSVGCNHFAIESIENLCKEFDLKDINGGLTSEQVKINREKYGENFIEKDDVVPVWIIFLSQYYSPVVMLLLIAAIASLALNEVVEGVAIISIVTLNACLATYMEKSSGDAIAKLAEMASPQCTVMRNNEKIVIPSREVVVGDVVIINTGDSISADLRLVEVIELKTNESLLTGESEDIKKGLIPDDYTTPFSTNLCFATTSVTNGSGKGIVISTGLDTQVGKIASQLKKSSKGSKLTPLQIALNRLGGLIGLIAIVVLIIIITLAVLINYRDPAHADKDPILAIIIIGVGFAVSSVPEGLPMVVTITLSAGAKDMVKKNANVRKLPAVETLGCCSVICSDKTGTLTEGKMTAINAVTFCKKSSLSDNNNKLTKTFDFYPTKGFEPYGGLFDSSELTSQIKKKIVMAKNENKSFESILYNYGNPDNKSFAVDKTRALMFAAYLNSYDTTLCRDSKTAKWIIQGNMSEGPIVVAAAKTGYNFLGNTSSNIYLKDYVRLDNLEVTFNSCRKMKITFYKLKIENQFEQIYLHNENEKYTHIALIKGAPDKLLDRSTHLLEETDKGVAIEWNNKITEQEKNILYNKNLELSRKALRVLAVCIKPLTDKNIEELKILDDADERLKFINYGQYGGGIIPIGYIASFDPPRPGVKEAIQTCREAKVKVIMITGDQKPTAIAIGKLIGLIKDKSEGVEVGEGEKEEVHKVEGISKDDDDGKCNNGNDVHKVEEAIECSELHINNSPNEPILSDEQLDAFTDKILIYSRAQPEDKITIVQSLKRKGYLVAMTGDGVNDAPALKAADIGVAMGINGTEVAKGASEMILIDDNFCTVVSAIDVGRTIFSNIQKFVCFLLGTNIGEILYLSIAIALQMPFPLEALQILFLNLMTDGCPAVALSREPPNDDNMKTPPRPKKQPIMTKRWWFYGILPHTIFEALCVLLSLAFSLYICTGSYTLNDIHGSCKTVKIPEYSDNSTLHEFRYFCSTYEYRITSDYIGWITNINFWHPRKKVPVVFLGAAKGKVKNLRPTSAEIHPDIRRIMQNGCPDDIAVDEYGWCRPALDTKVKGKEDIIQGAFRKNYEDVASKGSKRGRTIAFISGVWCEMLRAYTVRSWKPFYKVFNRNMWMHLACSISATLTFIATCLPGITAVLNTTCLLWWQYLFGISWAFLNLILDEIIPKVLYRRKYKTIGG
Source text: growth inhibition of orthologue replacement parasite line, SYBR green I (whole-cell read-out) on PmATP4 (PmATP4^OR line)

PvATP4 (PvATP4^OR line) [3] = target: T3, PvATP4 (PvATP4^OR line) (Plasmodium vivax, UniProt A5K0L8); assay: as above; conditions: intact P. knowlesi parasites in erythrocytes, 27 h (one life cycle); not a direct enzyme assay
T3 construct: gene PVX_084625; full-length recodonized coding region replacing pkatp4 in P. knowlesi A1-H.1; untagged; intact parasites
Source text: growth inhibition of orthologue replacement parasite line, SYBR green I (whole-cell read-out) on PvATP4 (PvATP4^OR line)

[4] = target: T4, PocATP4 (PocATP4^OR line) (Plasmodium ovale, UniProt A0A1D3TM67); assay: as above; conditions: intact P. knowlesi parasites in erythrocytes, 27 h (one life cycle); not a direct enzyme assay
T4 construct: gene ATP4; full-length recodonized coding region replacing pkatp4 in P. knowlesi A1-H.1; untagged; intact parasites
T4 sequence (A0A1D3TM67 1-1433): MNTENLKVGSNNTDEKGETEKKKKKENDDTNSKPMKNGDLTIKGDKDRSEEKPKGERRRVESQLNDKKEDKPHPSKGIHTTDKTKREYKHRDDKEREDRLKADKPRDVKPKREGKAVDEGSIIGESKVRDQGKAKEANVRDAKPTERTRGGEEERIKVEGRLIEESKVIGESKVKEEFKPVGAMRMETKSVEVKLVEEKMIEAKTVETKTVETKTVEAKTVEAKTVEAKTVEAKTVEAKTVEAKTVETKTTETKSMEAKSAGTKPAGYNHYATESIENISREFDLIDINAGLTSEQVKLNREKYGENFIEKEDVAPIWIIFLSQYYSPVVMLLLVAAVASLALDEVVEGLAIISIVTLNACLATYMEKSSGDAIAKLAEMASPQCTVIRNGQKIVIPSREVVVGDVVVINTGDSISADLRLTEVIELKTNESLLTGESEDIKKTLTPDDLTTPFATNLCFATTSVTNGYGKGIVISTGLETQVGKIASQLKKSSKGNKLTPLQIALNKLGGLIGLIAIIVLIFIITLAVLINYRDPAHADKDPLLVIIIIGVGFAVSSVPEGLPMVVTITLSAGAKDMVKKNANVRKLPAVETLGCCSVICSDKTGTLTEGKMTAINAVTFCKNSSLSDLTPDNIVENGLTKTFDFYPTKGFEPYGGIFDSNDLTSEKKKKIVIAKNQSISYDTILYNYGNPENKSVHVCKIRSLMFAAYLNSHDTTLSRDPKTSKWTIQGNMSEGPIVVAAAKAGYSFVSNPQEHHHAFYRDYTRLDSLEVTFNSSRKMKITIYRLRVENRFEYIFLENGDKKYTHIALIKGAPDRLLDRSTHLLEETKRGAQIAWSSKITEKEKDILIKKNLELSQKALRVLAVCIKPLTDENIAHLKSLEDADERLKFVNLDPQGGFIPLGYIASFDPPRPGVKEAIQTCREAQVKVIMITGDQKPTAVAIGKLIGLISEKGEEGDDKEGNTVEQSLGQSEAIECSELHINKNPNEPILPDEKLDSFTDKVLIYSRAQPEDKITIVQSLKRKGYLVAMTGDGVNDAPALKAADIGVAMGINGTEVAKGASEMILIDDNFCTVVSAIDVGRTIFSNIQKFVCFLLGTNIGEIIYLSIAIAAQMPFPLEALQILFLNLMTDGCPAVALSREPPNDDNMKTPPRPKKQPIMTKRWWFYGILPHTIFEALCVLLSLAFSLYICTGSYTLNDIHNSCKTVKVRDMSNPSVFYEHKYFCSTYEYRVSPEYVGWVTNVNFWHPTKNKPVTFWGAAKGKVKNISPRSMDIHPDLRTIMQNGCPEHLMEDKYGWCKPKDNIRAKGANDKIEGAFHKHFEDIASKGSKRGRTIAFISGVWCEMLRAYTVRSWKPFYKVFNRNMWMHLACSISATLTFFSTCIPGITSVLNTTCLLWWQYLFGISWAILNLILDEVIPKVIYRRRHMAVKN
Source text: growth inhibition of orthologue replacement parasite line, SYBR green I (whole-cell read-out) on PocATP4 (PocATP4^OR line)

PfATP4 (PfATP4^OR line) [5] = target: T5, PfATP4 (PfATP4^OR line) (Plasmodium falciparum, UniProt A0A143ZZK9); assay: as above; conditions: intact P. knowlesi parasites in erythrocytes, 27 h (one life cycle); not a direct enzyme assay
T5 construct: gene ATP4; full-length recodonized coding region replacing pkatp4 in P. knowlesi A1-H.1; untagged; intact parasites
T5 sequence (A0A143ZZK9 whole entry): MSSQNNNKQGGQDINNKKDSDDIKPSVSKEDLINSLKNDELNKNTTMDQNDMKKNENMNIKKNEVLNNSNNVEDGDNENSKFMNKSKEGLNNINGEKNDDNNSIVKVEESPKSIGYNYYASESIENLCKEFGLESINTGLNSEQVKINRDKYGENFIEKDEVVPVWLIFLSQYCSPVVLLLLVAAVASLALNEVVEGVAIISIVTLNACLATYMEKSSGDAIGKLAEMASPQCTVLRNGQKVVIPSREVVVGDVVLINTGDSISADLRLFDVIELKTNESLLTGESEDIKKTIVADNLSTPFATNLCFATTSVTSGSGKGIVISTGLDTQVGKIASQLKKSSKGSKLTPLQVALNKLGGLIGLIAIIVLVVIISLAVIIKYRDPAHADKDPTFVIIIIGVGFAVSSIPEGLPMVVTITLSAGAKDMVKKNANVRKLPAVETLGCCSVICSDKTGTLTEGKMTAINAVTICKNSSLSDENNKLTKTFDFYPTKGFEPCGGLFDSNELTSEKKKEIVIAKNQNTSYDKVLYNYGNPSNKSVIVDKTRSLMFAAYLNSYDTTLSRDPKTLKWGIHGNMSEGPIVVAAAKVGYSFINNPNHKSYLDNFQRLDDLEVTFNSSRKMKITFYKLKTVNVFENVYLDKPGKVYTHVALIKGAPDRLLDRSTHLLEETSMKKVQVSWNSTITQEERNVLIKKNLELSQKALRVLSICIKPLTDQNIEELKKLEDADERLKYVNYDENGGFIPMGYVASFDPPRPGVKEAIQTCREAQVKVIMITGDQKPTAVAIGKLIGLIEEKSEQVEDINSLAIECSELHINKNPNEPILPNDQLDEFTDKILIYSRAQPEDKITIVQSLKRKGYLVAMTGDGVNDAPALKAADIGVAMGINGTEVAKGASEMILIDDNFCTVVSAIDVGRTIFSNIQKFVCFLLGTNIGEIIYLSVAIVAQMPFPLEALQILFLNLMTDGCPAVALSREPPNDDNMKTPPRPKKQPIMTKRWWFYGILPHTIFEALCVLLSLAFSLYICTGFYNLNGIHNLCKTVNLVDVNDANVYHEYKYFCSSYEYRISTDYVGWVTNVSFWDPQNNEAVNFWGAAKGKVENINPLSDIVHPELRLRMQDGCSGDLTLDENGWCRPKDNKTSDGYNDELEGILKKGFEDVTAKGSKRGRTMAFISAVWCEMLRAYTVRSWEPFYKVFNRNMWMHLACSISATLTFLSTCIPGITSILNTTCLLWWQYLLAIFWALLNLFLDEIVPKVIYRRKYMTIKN
Source text: growth inhibition of orthologue replacement parasite line, SYBR green I (whole-cell read-out) on PfATP4 (PfATP4^OR line)

PfATP4 (PfATP4^OR line) [6] = target: T5, PfATP4 (PfATP4^OR line); assay: SBFI fluorescence of intracellular Na+ in saponin-isolated trophozoites; conditions: 0.1 µM, physiological saline, pH 7.1, 37°C
Source text: SBFI fluorescence of intracellular Na+ in saponin-isolated trophozoites on PfATP4 (PfATP4^OR line)

PmATP4 (PmATP4^OR line) [7] = target: T2, PmATP4 (PmATP4^OR line); assay: as above; conditions: 0.1 µM, physiological saline, pH 7.1, 37°C
Source text: SBFI fluorescence of intracellular Na+ in saponin-isolated trophozoites on PmATP4 (PmATP4^OR line)

PkATP4 (PkATP4^OR line) [8] = target: T1, PkATP4 (PkATP4^OR line); assay: as above; conditions: 0.1 µM, physiological saline, pH 7.1, 37°C
Source text: SBFI fluorescence of intracellular Na+ in saponin-isolated trophozoites on PkATP4 (PkATP4^OR line)

PvATP4 (PvATP4^OR line) [9] = target: T3, PvATP4 (PvATP4^OR line); assay: as above; conditions: 0.1 µM, physiological saline, pH 7.1, 37°C
Source text: SBFI fluorescence of intracellular Na+ in saponin-isolated trophozoites on PvATP4 (PvATP4^OR line)

[10] = target: T4, PocATP4 (PocATP4^OR line); assay: as above; conditions: 0.1 µM, physiological saline, pH 7.1, 37°C
Source text: SBFI fluorescence of intracellular Na+ in saponin-isolated trophozoites on PocATP4 (PocATP4^OR line)

Compound: PA21A092
- EC50, nM (P value) / PA21A092 (PkATP4 (PkATP4^OR line) [1]): 126 ± 5.5 nM
- EC50, nM (P value) / PA21A092 (PmATP4 (PmATP4^OR line) [2]): 92.8 ± 14.7 nM
- EC50, nM (P value) / PA21A092 (PvATP4 (PvATP4^OR line) [3]): 94.8 ± 14.6 nM
- EC50, nM (P value) / PA21A092 [4]: 599 ± 70 nM
- EC50, nM (P value) / PA21A092 (PfATP4 (PfATP4^OR line) [5]): 17.8 ± 2.9 nM

Compound: C[C@H]1Cc2c([nH]c3cc(Cl)c(F)cc23)[C@@]2(N1)C(=O)Nc1ccc(Cl)cc12 [cipargamin]
- Rate of increase in [Na^+]i 10 min after cipargamin exposure, μM/s (P value) (PfATP4 (PfATP4^OR line) [6]): 203.2 ± 54.1 µM/s
- Rate of increase in [Na^+]i 10 min after cipargamin exposure, μM/s (P value) (PmATP4 (PmATP4^OR line) [7]): 35.7 ± 8.07 µM/s
- EC50, nM (P value) / Cipargamin (PkATP4 (PkATP4^OR line) [1]): 13.5 ± 2.4 nM
- Rate of increase in [Na^+]i 10 min after cipargamin exposure, μM/s (P value) (PkATP4 (PkATP4^OR line) [8]): 35.8 ± 9.98 µM/s
- Rate of increase in [Na^+]i 10 min after cipargamin exposure, μM/s (P value) (PvATP4 (PvATP4^OR line) [9]): 96.6 ± 47.3 µM/s
- EC50, nM (P value) / Cipargamin (PmATP4 (PmATP4^OR line) [2]): 9.44 ± 2.0 nM
- EC50, nM (P value) / Cipargamin (PvATP4 (PvATP4^OR line) [3]): 22.9 ± 4.2 nM
- Rate of increase in [Na^+]i 10 min after cipargamin exposure, μM/s (P value) [10]: 41.5 ± 8.85 µM/s
- EC50, nM (P value) / Cipargamin [4]: 34.1 ± 1.6 nM
- EC50, nM (P value) / Cipargamin (PfATP4 (PfATP4^OR line) [5]): 1.62 ± 0.37 nM
